Test results taken from PMC12406652 (Antimicrobial Agents and Chemotherapy, 2025).

Assay: Drug-drug interaction, single dose CTB 400 mg + LED-E 500 mg, cross-over (VNRX-7145-102 Part 1)
Conditions: human, plasma, oral

For `CCC(=O)N[C@H]1Cc2cccc(C(=O)OCOC(=O)C(CC)CC)c2OB1O` [Ledaborbactam etzadroxil], the AUC(0-inf) was 1.07 µg·h/mL, the Cmax was 0.787 µg/mL and the AUC(0-inf) (500 mg) was 1.14 µg·h/mL. The Cmax (500 mg) was 1.04 µg/mL.
